# Measurements: patent US20180303853A1, “COMPOSITIONS AND METHODS FOR TREATING BACTERIAL INFECTIONS USING CEFTAROLINE” (priority 2017, published 2018)
# Experiments:
# [1] = system: Community-Acquired Bacterial Pneumonia (CABP); test: Two Phase 3 studies in CABP, clinical cure at TOC (single and integrated/combined); format: in vivo, human; details: TOC; for Combined clinical cure rate: combined data of the two CAP studies; for Weighted treatment difference (95% CI), ceftaroline versus ceftriaxone: combined data
# Procedure: In both treatment groups of CABP Study 1, two doses of oral clarithromycin (500 mg q12 h), were administered as adjunctive therapy starting on Study Day 1. No adjunctive macrolide therapy was used in CABP Study 2. Patients with new or progressive pulmonary infiltrate(s) on chest radiography and clinical signs and symptoms consistent with CABP with the need for hospitalization and IV therapy were enrolled in the studies. Treatment duration was 5 to 7 days. A switch to oral therapy was not allowed. The Modified Intent-to-Treat Efficacy (MITTE) population, included all patients who received any amount of study drug according to their randomized, treatment group and were in PORT (Pneumonia Outcomes Research Team) Risk Class III or IV.
# The primary efficacy endpoint was the clinical response at the Test of Cure (TOC) visit in the co-primary Ce and MITTE populations (Table 4).
# [2] = human, in vivo
# Procedure: (§2) Study drug: Ceftaroline fosamil was administered in two consecutive 300 mg intravenous (IV) infusions over 30 minutes, every 12 hours (q12h). The 600-mg dose of ceftaroline fosamil infused over 60 minutes was split into two infusions in order to maintain the blind. For subjects with moderate renal impairment (30 mL/min<CrCl≤50 mL/min), as estimated by the Cockroft-Gault formula, unblinded pharmacy staff or unblinded study staff could adjust the dose of ceftaroline fosamil to two consecutive 200 mg infusions and readjust dose to two 300 mg infusions when renal function improved (CrCl>50 mL/min). The duration of treatment was between 5 to 7 days.
# (§3) All subjects initially received two doses (500 mg every 12 hours) of oral adjunctive therapy with clarithromycin following randomization.
# (§4) All subjects who received any amount of study drug were included in the safety analysis. Safety measures included monitoring for adverse events (AE) up to TOC and serious adverse events (SAE) through LFU; recording vital signs, physical examination, electrocardiogram (ECG), and clinical laboratory findings (clinical chemistry, hematology, and urinalysis); at prespecified times throughout the study.
# [3] = human, in vivo; remark: listed apart in the source
# [4] = system: complicated skin and skin structure infections (cSSSI); test: Two Phase 3 studies in cSSSI, clinical cure at TOC; format: in vivo, human; details: co-primary CE and MITT populations
# Procedure: A total of 1396 adults with clinically documented complicated skin and skin structure infections (cSSSI) were enrolled in two randomized, multi-center, multinational, double-blind, studies comparing 600 mg ceftaroline fosamil administered intravenously over 1 hour every 12 hours to vancomycin plus aztreonam [1 g vancomycin administered intravenously over 1 hour followed by 1 g aztreonam administered intravenously over 1 hour every 12 hours]. Patients with cSSSI (deep/extensive cellulitis, a major abscess, a wound infection [surgical or traumatic], infected insect bites, burns or ulcers, lower extremity infection in patients with diabetes mellitus or peripheral vascular disease), were enrolled in the studies. Treatment duration was […] days. A switch to oral therapy was not allowed. The Modified Intent-to-Treat (MITT) population included all patients who received any amount of study drug according to their randomized treatment group.
# The primary efficacy endpoint was clinical response at the Test of Cure (TOC) visit in the co-primary CE and MITT populations (Table 2). […] In a subgroup analysis (CE population), the comparative clinical cure rates between the ceftaroline group and the vancomycin plus aztreonam group were not affected by age, gender, race, ethnicity, or weight.
# [5] = human, in vivo; remark: listed apart in the source
# [6] = human, in vivo; remark: listed apart in the source
# Procedure: The pharmacokinetics of ceftaroline were evaluated in adolescent patients (ages 12 to 17) with normal renal function.
# No dose adjustment is required based on gender.
# S. pneumoniae = test: Example 5 CAP study, outcome by baseline pathogen; format: in vivo
# Text: (§1) Per-pathogen clinical cure rate and favorable microbiological outcome rate at TOC in the mMITTE and ME Populations;
# E. coli = test: Example 5 CAP study, outcome by baseline pathogen; format: in vivo
# Text: as §1
# H. parainfluenzae = test: Example 5 CAP study, outcome by baseline pathogen; format: in vivo
# Text: as §1
# S. aureus = test: Example 5 CAP study, outcome by baseline pathogen; format: in vivo
# Text: as §1
# H. influenzae = test: Example 5 CAP study, outcome by baseline pathogen; format: in vivo
# Text: as §1
# human plasma protein = format: in vitro ADME
# [7] = human, microsomes
# clinical = details: human, in vivo
# MDRSP = test: Example 4 CAP study, outcome by baseline pathogen; format: in vivo, S. pneumoniae
# Text: as §1
# [8] = Excretion after single IV dose of radiolabeled ceftaroline fosamil in healthy male adults; format: in vivo, human; details: in vivo
# Procedure: Following administration of a single 600 mg IV dose of radiolabeled ceftaroline fosamil to healthy male adults, approximately 87% of radioactivity was recovered in urine and 6% in feces. The majority of the radioactivity (˜90%) was recovered within 48 hours. Of the radioactivity recovered in urine, approximately 64% was excreted as ceftaroline and approximately 2% as ceftaroline-M-1.
# [9] = system: CYP1A1, CYP1A2, CYP2A6, CYP2B6, CYP2C8, CYP2C9, CYP2C19, CYP2D6, CYP2E1 and CYP3A4; test: Cytochrome P450 inhibition in human liver microsomes; format: in vitro ADME; details: microsomes
# [10] = Example 5 CAP study, safety
# Procedure: as §2, §3, §4
smiles,measurement,setting,value
"CCO/N=C(\C(=O)N[C@@H]1C(=O)N2C(C(=O)[O-])=C(Sc3nc(-c4cc[n+](C)cc4)cs3)CS[C@H]12)c1nsc(N)n1 [Ceftaroline, ceftaroline]",Combined clinical cure rate,[1]; CE,387/459 (84.3) %
same,Combined clinical cure rate,[1]; ME,131/154 (85.1) %
same,Combined clinical cure rate,[1]; MITTE,479/580 (82.6) %
same,Combined clinical cure rate,[1]; mMITTE,138/165 (83.6) %
same,"Weighted treatment difference (95% CI), ceftaroline versus ceftriaxone",[1]; CE,"6.7 (1.6, 11.8) %"
same,"Weighted treatment difference (95% CI), ceftaroline versus ceftriaxone","[1]; CE, listed as ceftaroline",6.7%
same,"Weighted treatment difference (95% CI), ceftaroline versus ceftriaxone",[1]; ME,"9.7 (0.7, 18.8) %"
same,"Weighted treatment difference (95% CI), ceftaroline versus ceftriaxone","[1]; ME, listed as ceftaroline",9.7%
same,"Weighted treatment difference (95% CI), ceftaroline versus ceftriaxone",[1]; MITTE,"6.0 (1.4, 10.7) %"
same,"Weighted treatment difference (95% CI), ceftaroline versus ceftriaxone",[1]; mMITTE,"8.7 (−0.0, 17.4) %"
same,"Weighted treatment difference (95% CI), ceftaroline versus ceftriaxone","[1]; mMITTE, listed as ceftaroline",8.7%
same,Adverse event: Constipation,[2],7 (2.3) %
same,TEAEs assessed as drug related by the Investigators,[2],17.1%
same,study-drug-related TEAE: headache,[2],1.0%
same,study-drug-related TEAE: hepatic enzyme increased,[2],0.3%
same,study-drug-related TEAE: sinus bradychardia,[2],1.0%
same,CL/Fm,[3],9.60 (1.40) L/h
same,dose dependence of Cmax and AUC,[3],increased approximately in proportion to increases in dose
same,t1/2,[3],2.66 (0.40) h
same,"clinical response at TOC, comparison with comparator",[4],non-inferior to vancomycin plus aztreonam
same,"change in exposure (Cmax and AUC) with concomitant CYP450 inhibitors, inducers, substrates",[5],did nor identify any clinically relevant increases
same,AUC higher in female vs male subjects (trend),[6]; both,6-15%
same,Cmax higher in female vs male subjects (trend),[6]; both,17-22%
same,"mean recovery in the dialysate, share of the administered dose",[6]; 4 h,21.6%
same,mean AUC higher than in healthy young adults (18-45 years),"[6]; iv, 600 mg",~33%
same,Favorable Microbiological Outcome at TOC by Baseline Pathogen,"S. pneumoniae; Example 5, ME",21/24 (87.5)
same,Clinical Cure Rate at the TOC Visit by Baseline Pathogen,"S. pneumoniae; Example 5, ME Population",21/24 (87.5)
same,Favorable Microbiological Outcome at TOC by Baseline Pathogen,"E. coli; Example 5, ME",8/8 (100.0)
same,Clinical Cure Rate at the TOC Visit by Baseline Pathogen,"E. coli; Example 5, ME Population",8/8 (100.0)
same,Favorable Microbiological Outcome at TOC by Baseline Pathogen,"H. parainfluenzae; Example 5, ME",7/7 (100.0)
same,Clinical Cure Rate at the TOC Visit by Baseline Pathogen,"H. parainfluenzae; Example 5, ME Population",7/7 (100.0)
same,Favorable Microbiological Outcome at TOC by Baseline Pathogen,"S. aureus; Example 5, ME",8/10 (80.0)
same,Clinical Cure Rate at the TOC Visit by Baseline Pathogen,"S. aureus; Example 5, ME Population",8/10 (80.0)
same,Favorable Microbiological Outcome at TOC by Baseline Pathogen,"H. influenzae; Example 5, ME",2/3 (66.7)
same,Clinical Cure Rate at the TOC Visit by Baseline Pathogen,"H. influenzae; Example 5, ME Population",2/3 (66.7)
same,binding to human plasma protein,human plasma protein,approximately 20%
same,metabolic turnover,[7],< 12%
same,clearance,clinical; CL/Fm,160 mL/min
same,half-life,clinical; mean plasma terminal elimination half-life,~2.5 h
same,half-life,clinical; t1/2,1.6 h
same,Favorable Microbiological Outcome at TOC by Baseline Pathogen,"MDRSP; Example 4, ME",2/2 (100.0)
same,Clinical Cure Rate at the TOC Visit by Baseline Pathogen,"MDRSP; Example 4, ME Population",2/2 (100.0)
same,route of elimination,[8],primarily eliminated by the kidneys
same,inhibition of major cytochrome P450 isoenzymes,[9],neither ceftaroline fosamil nor ceftaroline inhibits
same,hemolytic anemia,[10],No evidence of hemolytic anemia
same,percentage of deaths,[10],1.7%
